The data set relates to CCRIS mutagenicity, Ames/micronucleus/aberration tests. As to the kind of experiment: CCRIS mutagenicity studies.
The mark [1] stands for this setting: Test System: AMES SALMONELLA TYPHIMURIUM, Strain/Indicator: TA98, Metabolic Activation: NONE, Method: PREINCUBATION
Where [2] appears, read: Test System: AMES SALMONELLA TYPHIMURIUM, Strain/Indicator: TA100, Metabolic Activation: NONE, Method: PREINCUBATION
Setting [3] is: Test System: AMES SALMONELLA TYPHIMURIUM, Strain/Indicator: TA97A, Metabolic Activation: NONE, Method: STANDARD PLATE.
The mark [4] stands for this setting: Test System: AMES SALMONELLA TYPHIMURIUM, Strain/Indicator: TA98, Metabolic Activation: NONE, Method: STANDARD PLATE.
Setting [5] is: Test System: AMES SALMONELLA TYPHIMURIUM, Strain/Indicator: TA100, Metabolic Activation: NONE, Method: STANDARD PLATE.
Where [6] appears, read: Test System: AMES SALMONELLA TYPHIMURIUM, Strain/Indicator: TA1535, Metabolic Activation: NONE, Method: STANDARD PLATE.

The source made the active and inactive calls. How the calls were made is not given here.

Regarding `C1CC2OC2CC1C1CO1` (stereo unspecified), the mutagenic call runs as follows: (Test System: AMES SALMONELLA TYPHIMURIUM, Strain/Indicator: TA98, Metabolic Activation: HAMSTER, LIVER, S-9, AROCLOR 1254, Method: PREINCUBATION) “active; positive”; under setting [1], “active; positive”; (Test System: AMES SALMONELLA TYPHIMURIUM, Strain/Indicator: TA98, Metabolic Activation: RAT, LIVER, S-9, AROCLOR 1254, Method: PREINCUBATION) “active; positive”; (Test System: AMES SALMONELLA TYPHIMURIUM, Strain/Indicator: TA100, Metabolic Activation: HAMSTER, LIVER, S-9, AROCLOR 1254, Method: PREINCUBATION) “active; positive”; under setting [2], “active; positive”; (Test System: AMES SALMONELLA TYPHIMURIUM, Strain/Indicator: TA100, Metabolic Activation: RAT, LIVER, S-9, AROCLOR 1254, Method: PREINCUBATION) “active; positive”. Also, the mutagenic call is, setting by setting: (Test System: AMES SALMONELLA TYPHIMURIUM, Strain/Indicator: TA1535, Metabolic Activation: HAMSTER, LIVER, S-9, AROCLOR 1254, Method: PREINCUBATION) “active; positive”; (Test System: AMES SALMONELLA TYPHIMURIUM, Strain/Indicator: TA1535, Metabolic Activation: NONE, Method: PREINCUBATION) “active; positive”; (Test System: AMES SALMONELLA TYPHIMURIUM, Strain/Indicator: TA1535, Metabolic Activation: RAT, LIVER, S-9, AROCLOR 1254, Method: PREINCUBATION) “active; positive”; (Test System: AMES SALMONELLA TYPHIMURIUM, Strain/Indicator: TA1537, Metabolic Activation: HAMSTER, LIVER, S-9, AROCLOR 1254, Method: PREINCUBATION) “active; positive”; (Test System: AMES SALMONELLA TYPHIMURIUM, Strain/Indicator: TA1537, Metabolic Activation: RAT, LIVER, S-9, AROCLOR 1254, Method: PREINCUBATION) “active; positive”; (Test System: MOUSE LYMPHOMA, Strain/Indicator: L5178Y (TK+/TK-), Metabolic Activation: NONE, Method: SUSPENSION/PLATE) “active; positive”.

`c1ccc2cnccc2c1`: the mutagenic call is “inactive; negative” under setting [1]; “inactive; negative” (Test System: AMES SALMONELLA TYPHIMURIUM, Strain/Indicator: TA98, Metabolic Activation: RAT, LIVER, S-9, Method: PREINCUBATION); “inactive; negative” under setting [2]; “inactive; negative” (Test System: AMES SALMONELLA TYPHIMURIUM, Strain/Indicator: TA100, Metabolic Activation: RAT, LIVER, S-9, Method: PREINCUBATION).

`CCCCCC[C@H](C/C=C\CCCCCCCC(=O)OC)OC(C)=O`: the mutagenic call is “inactive; negative” (Test System: AMES SALMONELLA TYPHIMURIUM, Strain/Indicator: TA97, Metabolic Activation: NONE, Method: PREINCUBATION); “inactive; negative” (Test System: AMES SALMONELLA TYPHIMURIUM, Strain/Indicator: TA97, Metabolic Activation: RAT, LIVER, S-9, AROCLOR 1254, Method: PREINCUBATION); “inactive; negative” (Test System: AMES SALMONELLA TYPHIMURIUM, Strain/Indicator: TA102, Metabolic Activation: NONE, Method: PREINCUBATION); “inactive; negative” (Test System: AMES SALMONELLA TYPHIMURIUM, Strain/Indicator: TA102, Metabolic Activation: RAT, LIVER, S-9, AROCLOR 1254, Method: PREINCUBATION).

As for `COP(=S)(OC)SCC(=O)N(C)C=O`, the mutagenic call is “inactive; negative” under setting [3]; “inactive; negative” (Test System: AMES SALMONELLA TYPHIMURIUM, Strain/Indicator: TA97A, Metabolic Activation: PLANT, HOMOGENATE, S-14, Method: STANDARD PLATE); “inactive; negative” (Test System: AMES SALMONELLA TYPHIMURIUM, Strain/Indicator: TA97A, Metabolic Activation: S-9, Method: STANDARD PLATE); “inactive; negative” under setting [4]; “inactive; negative” (Test System: AMES SALMONELLA TYPHIMURIUM, Strain/Indicator: TA98, Metabolic Activation: PLANT, HOMOGENATE, S-14, Method: STANDARD PLATE); “inactive; negative” (Test System: AMES SALMONELLA TYPHIMURIUM, Strain/Indicator: TA98, Metabolic Activation: S-9, Method: STANDARD PLATE). The mutagenic call was “inactive; negative” under setting [5]; “inactive; negative” (Test System: AMES SALMONELLA TYPHIMURIUM, Strain/Indicator: TA100, Metabolic Activation: PLANT, HOMOGENATE, S-14, Method: STANDARD PLATE); “inactive; negative” (Test System: AMES SALMONELLA TYPHIMURIUM, Strain/Indicator: TA100, Metabolic Activation: S-9, Method: STANDARD PLATE); “inactive; negative” under setting [6]; “inactive; negative” (Test System: AMES SALMONELLA TYPHIMURIUM, Strain/Indicator: TA1535, Metabolic Activation: PLANT, HOMOGENATE, S-14, Method: STANDARD PLATE); “inactive; negative” (Test System: AMES SALMONELLA TYPHIMURIUM, Strain/Indicator: TA1535, Metabolic Activation: S-9, Method: STANDARD PLATE).

Take `CC(=O)OCc1ccc(N=Nc2ccccc2COC(C)=O)cc1`: the mutagenic call is “active; positive” under setting [2] and “inactive; negative” (Test System: AMES SALMONELLA TYPHIMURIUM, Strain/Indicator: TA100, Metabolic Activation: RAT, LIVER, S-9, POLYCHLORINATED BIPHENYLS, Method: PREINCUBATION).

With `O=c1ccc2ccccc2[nH]1`, the mutagenic call runs as follows: under setting [5], “inactive; negative”; (Test System: AMES SALMONELLA TYPHIMURIUM, Strain/Indicator: TA100, Metabolic Activation: RAT, LIVER, S-9, AROCLOR 1254 (10% OR 20%), Method: STANDARD PLATE) “inactive; negative”.

Regarding `C[C@@H]1C[C@H]2[C@@H]3CCC4=CC(=O)C=C[C@]4(C)[C@@]3(F)[C@@H](O)C[C@]2(C)[C@@]1(O)C(=O)CO`, the mutagenic call is “active; positive at 10 and 100 ug/ml with 72 hr treatment” (End Point: IN VITRO CHROMOSOMAL ABERRATIONS, Test System: HUMAN PERIPHERAL LYMPHOCYTES, Metabolic Activation: NONE); “active; positive” (End Point: IN VIVO MICRONUCLEUS, Test System: BONE MARROW POLYCHROMATIC ERYTHROCYTES, Species: MOUSE, Strain/Sex: SWISS/MALE, Route: IP INJECTION (SINGLE DOSE)); “inactive; negative” under setting [3]; “inactive; negative” (Test System: AMES SALMONELLA TYPHIMURIUM, Strain/Indicator: TA97A, Metabolic Activation: RAT, LIVER, S-9, PHENOBARBITAL, Method: STANDARD PLATE); “inactive; negative” under setting [4]; “inactive; negative” (Test System: AMES SALMONELLA TYPHIMURIUM, Strain/Indicator: TA98, Metabolic Activation: RAT, LIVER, S-9, PHENOBARBITAL, Method: STANDARD PLATE). Besides, the mutagenic call is, setting by setting: under setting [5], “inactive; negative”; (Test System: AMES SALMONELLA TYPHIMURIUM, Strain/Indicator: TA100, Metabolic Activation: RAT, LIVER, S-9, PHENOBARBITAL, Method: STANDARD PLATE) “inactive; negative”; under setting [6], “inactive; negative”; (Test System: AMES SALMONELLA TYPHIMURIUM, Strain/Indicator: TA1535, Metabolic Activation: RAT, LIVER, S-9, PHENOBARBITAL, Method: STANDARD PLATE) “inactive; negative”.

These data come from PubChem BioAssay AID1259407 (Chemical Carcinogenesis Research Information System (CCRIS), 2018).
